Source: paper PMC9174266, “Isolation, characterization and biological activities of betulin from Acacia nilotica bark” (Scientific Reports, 2022)

Tests used:
COX-1 = target: T1, COX-1 (Ovis aries, UniProt P05979); assay: COX (ovine) inhibitor screening assay kit; […] inhibition at […]; format: biochemical
T1 construct: gene PTGS1
T1 sequence (P05979 25-600): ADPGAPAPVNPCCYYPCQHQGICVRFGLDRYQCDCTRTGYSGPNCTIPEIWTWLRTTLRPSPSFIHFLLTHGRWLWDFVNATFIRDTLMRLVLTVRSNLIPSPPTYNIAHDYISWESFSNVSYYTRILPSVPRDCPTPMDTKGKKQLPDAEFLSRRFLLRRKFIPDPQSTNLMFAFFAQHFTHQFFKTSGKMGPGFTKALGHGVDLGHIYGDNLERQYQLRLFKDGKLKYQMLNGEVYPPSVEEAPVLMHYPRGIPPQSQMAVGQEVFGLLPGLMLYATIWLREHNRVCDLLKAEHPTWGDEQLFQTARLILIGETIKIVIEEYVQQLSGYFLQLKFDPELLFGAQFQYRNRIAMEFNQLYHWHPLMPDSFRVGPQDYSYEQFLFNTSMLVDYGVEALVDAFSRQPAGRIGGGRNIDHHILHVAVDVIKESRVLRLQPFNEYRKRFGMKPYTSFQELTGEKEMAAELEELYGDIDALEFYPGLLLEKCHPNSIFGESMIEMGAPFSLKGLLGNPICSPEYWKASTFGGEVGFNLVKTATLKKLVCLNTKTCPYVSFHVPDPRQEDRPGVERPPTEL

COX-2 = target: T2, COX-2 (Ovis aries, UniProt P79208); assay: COX (ovine) inhibitor screening assay kit, PGF2α produced by SnCl2 reduction of COX-derived PGH2, read at […] nm; format: biochemical
T2 construct: gene PTGS2
T2 sequence (P79208 17-603): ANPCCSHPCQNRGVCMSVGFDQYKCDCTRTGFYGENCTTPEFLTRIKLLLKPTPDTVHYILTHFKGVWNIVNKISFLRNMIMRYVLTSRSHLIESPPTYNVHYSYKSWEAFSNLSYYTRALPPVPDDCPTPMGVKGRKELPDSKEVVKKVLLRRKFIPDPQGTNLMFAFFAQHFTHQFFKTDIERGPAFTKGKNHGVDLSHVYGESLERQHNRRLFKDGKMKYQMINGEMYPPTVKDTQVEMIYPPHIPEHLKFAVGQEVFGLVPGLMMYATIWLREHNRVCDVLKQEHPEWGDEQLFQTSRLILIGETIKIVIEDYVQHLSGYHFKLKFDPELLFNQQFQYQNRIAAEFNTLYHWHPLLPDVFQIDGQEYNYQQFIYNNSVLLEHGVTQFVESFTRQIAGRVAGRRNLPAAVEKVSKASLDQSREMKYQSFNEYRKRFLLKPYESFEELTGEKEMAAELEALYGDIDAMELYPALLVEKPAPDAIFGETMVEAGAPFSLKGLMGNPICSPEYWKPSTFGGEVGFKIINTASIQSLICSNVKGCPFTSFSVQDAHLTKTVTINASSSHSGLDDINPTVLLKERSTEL

Compound: C=C(C)[C@@H]1CC[C@]2(CO)CC[C@]3(C)[C@H](CC[C@@H]4[C@@]5(C)CC[C@H](O)C(C)(C)[C@@H]5CC[C@]43C)[C@@H]12 [AN-10]
- IC50 (COX-1): > 10 µM
- IC50 (COX-2): < 1 µM
